Data from ChEMBL document CHEMBL3407370, “Potent acetylcholinesterase inhibitors: design, synthesis, biological evaluation, and docking study of acridone linked to 1,2,3-triazole derivatives” (Eur J Med Chem, 2015).

Experiments:
Acetylcholinesterase = Acetylcholinesterase (Electrophorus electricus, UniProt O42275); assay: Inhibition of electric eel acetylcholinesterase using acetylthiocholine iodide as substrate after 15 mins by Ellman's method
Cholinesterase = Cholinesterase (Equus caballus, UniProt P81908); assay: Inhibition of equine serum butylcholinesterase using acetylthiocholine iodide as substrate after 15 mins by Ellman's method
[1] = Antioxidant activity assessed as DPPH radical scavenging activity at 700 ug/ml incubated in dark condition measured after 30 mins by UV/vis spectrophotometric analysis relative to control; assay type: physicochemical; conditions: 0.5 h
[2] = Antioxidant activity assessed as DPPH radical scavenging activity incubated in dark condition measured after 30 mins by UV/vis spectrophotometric analysis; assay type: physicochemical

Sequence of Acetylcholinesterase (O42275 whole entry): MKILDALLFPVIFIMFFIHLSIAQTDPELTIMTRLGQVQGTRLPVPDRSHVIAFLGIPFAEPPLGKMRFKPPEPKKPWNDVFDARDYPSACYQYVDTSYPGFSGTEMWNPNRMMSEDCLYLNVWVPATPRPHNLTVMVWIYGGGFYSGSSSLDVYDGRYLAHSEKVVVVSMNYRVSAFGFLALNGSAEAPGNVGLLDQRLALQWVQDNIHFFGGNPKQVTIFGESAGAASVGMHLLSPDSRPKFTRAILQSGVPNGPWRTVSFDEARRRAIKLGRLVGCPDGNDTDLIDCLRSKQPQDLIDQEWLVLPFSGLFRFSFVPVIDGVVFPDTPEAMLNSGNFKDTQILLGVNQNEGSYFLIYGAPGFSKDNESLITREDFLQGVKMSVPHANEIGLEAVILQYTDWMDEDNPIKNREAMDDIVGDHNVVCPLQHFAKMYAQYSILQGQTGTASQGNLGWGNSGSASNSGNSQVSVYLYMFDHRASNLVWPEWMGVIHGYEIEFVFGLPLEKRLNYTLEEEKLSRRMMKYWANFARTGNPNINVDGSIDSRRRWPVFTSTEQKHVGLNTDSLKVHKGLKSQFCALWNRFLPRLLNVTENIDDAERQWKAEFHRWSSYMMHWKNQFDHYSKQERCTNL
Sequence of Cholinesterase (P81908 whole entry): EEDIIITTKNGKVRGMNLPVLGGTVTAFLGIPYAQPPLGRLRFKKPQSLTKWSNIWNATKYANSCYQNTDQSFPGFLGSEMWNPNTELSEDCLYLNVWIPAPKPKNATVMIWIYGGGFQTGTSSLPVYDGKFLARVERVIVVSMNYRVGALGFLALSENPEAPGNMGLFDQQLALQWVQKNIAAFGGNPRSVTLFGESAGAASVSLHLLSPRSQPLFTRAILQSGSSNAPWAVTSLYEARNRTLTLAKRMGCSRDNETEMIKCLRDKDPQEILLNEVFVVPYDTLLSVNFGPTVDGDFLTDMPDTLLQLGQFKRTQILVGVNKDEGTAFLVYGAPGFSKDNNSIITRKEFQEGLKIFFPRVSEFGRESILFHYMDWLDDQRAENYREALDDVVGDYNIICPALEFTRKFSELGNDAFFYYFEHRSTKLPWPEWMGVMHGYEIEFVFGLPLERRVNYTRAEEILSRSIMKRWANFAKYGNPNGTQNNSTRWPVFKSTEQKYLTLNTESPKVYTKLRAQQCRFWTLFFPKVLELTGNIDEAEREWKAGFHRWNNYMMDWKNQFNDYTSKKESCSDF

| SMILES | IC50 (Acetylcholinesterase) | IC50 (Cholinesterase) | inhibition (INH) [1] | EC50 [2] |
| --- | --- | --- | --- | --- |
| Cc1ccc2c(c1)c(=O)c1ccccc1n2Cc1cn(Cc2ccc(Cl)cc2)nn1 | 10.8 µM | 87.2 µM | – | – |
| O=c1c2ccccc2n(Cc2cn(Cc3ccccc3)nn2)c2ccc(Br)cc12 | 68.1 µM | ≥ 100 µM | – | – |
| O=c1c2ccccc2n(Cc2cn(Cc3ccc([N+](=O)[O-])cc3)nn2)c2ccc(Br)cc12 | 52.8 µM | ≥ 100 µM | – | – |
| O=c1c2ccccc2n(Cc2cn(Cc3ccccc3)nn2)c2ccc(Cl)cc12 | 88.1 µM | ≥ 100 µM | 26.6% | > 700 µg/mL |
| O=c1c2ccccc2n(Cc2cn(Cc3ccc(Cl)cc3)nn2)c2c(F)cccc12 | 24.5 µM | ≥ 100 µM | – | – |
| COc1ccc2c(c1)c(=O)c1ccccc1n2Cc1cn(Cc2ccc(Cl)cc2)nn1 | 7.31 µM | ≥ 100 µM | – | – |
| Cc1ccc2c(c1)c(=O)c1ccccc1n2Cc1cn(Cc2ccccc2)nn1 | ≥ 100 µM | ≥ 100 µM | 7.09% | > 333 µg/mL |
| O=c1c2ccccc2n(Cc2cn(Cc3ccc([N+](=O)[O-])cc3)nn2)c2ccc(Cl)cc12 | 38.3 µM | ≥ 100 µM | – | – |
| O=c1c2ccccc2n(Cc2cn(Cc3ccc(Cl)cc3)nn2)c2ccc(Cl)cc12 | 17.7 µM | ≥ 100 µM | – | – |
| O=c1c2ccccc2n(Cc2cn(Cc3ccc(Cl)cc3)nn2)c2ccccc12 | 59.7 µM | ≥ 100 µM | 21.78% | > 333 µg/mL |
| O=c1c2ccccc2n(Cc2cn(Cc3ccccc3)nn2)c2c(F)cccc12 | ≥ 100 µM | ≥ 100 µM | 14.79% | > 700 µg/mL |
| O=c1c2ccccc2n(Cc2cn(Cc3ccccc3)nn2)c2ccccc12 | ≥ 100 µM | ≥ 100 µM | – | – |
| COc1ccc2c(c1)c(=O)c1ccccc1n2Cc1cn(Cc2ccccc2)nn1 | 24 µM | ≥ 100 µM | 8.65% | > 700 µg/mL |
| O=c1c2ccccc2n(Cc2cn(Cc3ccc(Cl)cc3)nn2)c2ccc(Br)cc12 | 45.6 µM | ≥ 100 µM | – | – |
